# According to PMC4268243 (Nuclear medicine and biology, 2014):
# “Also recorded” adds a separate entry of the source.
# Assays:
# [1] = tested on: DU145 androgen-independent prostate carcinoma cells; experiment: Amino acid uptake and inhibition in DU145 cells; assay type: cell-based, human; settings: DU145, 30 minutes incubation
# [2] = tested on: A549 lung adenocarcinoma cells; experiment: Amino acid uptake and inhibition in A549 cells; assay type: cell-based, human; settings: A549, 30 minutes incubation
# [3] = tested on: SKOV3 estrogen-positive ovarian adenocarcinoma cells; experiment: Amino acid uptake and inhibition in SKOV3 cells; assay type: cell-based, human; settings: SKOV3, 30 minutes incubation
# [4] = tested on: SCID mice xenograft tumor models; assay type: in vivo; settings: in most cases, over tumors and time points
# [5] = tested on: MDA MB468 estrogen-independent breast carcinoma cells; experiment: Amino acid uptake and inhibition in MDA MB468 cells; assay type: cell-based, human; settings: MDA MB468, 30 minutes incubation
# [6] = tested on: human A549, DU145, U87, MDA MB468 and SKOV3 tumor cells; experiment: Amino acid uptake and inhibition, summary over the five tumor cell lines; assay type: cell-based
# [7] = tested on: U87 tumor xenograft; experiment: Biodistribution in U87 tumor-bearing SCID mice; assay type: in vivo; settings: listed as (R)-[^18F]MeFAMP 2
# [8] = tested on: A549 tumor xenograft; experiment: Biodistribution in A549 tumor-bearing SCID mice; assay type: in vivo; settings: listed as (R)-[^18F]MeFAMP 2
# [9] = tested on: U87 glioblastoma cells; experiment: Amino acid uptake and inhibition in U87 cells; assay type: cell-based, human; settings: U87, 30 minutes incubation
# [10] = tested on: SKOV3 tumor xenograft; experiment: Biodistribution in SKOV3 tumor-bearing SCID mice; assay type: in vivo; settings: listed as (R)-[^18F]MeFAMP 2
# [11] = tested on: MDA MB468 tumor xenograft; experiment: Biodistribution in MDA MB468 tumor-bearing SCID mice; assay type: in vivo; settings: listed as (R)-[^18F]MeFAMP 2
# [12] = tested on: DU145 tumor xenograft; experiment: Biodistribution in DU145 tumor-bearing SCID mice; assay type: in vivo; settings: listed as (R)-[^18F]MeFAMP 2
# [13] = tested on: rat orthotopic brain tumor model; settings: rat model; cited from earlier work
# [14] = Brain uptake of [18F]FET in nude mice; assay type: in vivo
compound,measurement,setting,value
CN[C@@](C)(C[18F])C(=O)O [(R)-[^18F]2] [3-[^18F]fluoro-2-methyl-2-N-(methylamino)propanoic acid],Cell uptake,[1]; 10 mM BCH,1.9±0.1 % ID/5×10^5 cells
same,Cell uptake,[1]; 10 mM MeAIB,0.4±0.1 % ID/5×10^5 cells
same,Cell uptake,[1]; Control (no inhibitor),1.5±0.2 % ID/5×10^5 cells
same,Cell uptake,[2]; 10 mM BCH,3.1±0.1 % ID/5×10^5 cells
same,Cell uptake,[2]; 10 mM MeAIB,0.4±0.04 % ID/5×10^5 cells
same,Cell uptake,[2]; Control (no inhibitor),2.4±0.2 % ID/5×10^5 cells
same,Cell uptake,[3]; 10 mM BCH,4.5±0.7 % ID/5×10^5 cells
same,Cell uptake,[3]; 10 mM MeAIB,0.5±0.2 % ID/5×10^5 cells
same,Cell uptake,[3]; Control (no inhibitor),3.9±0.6 % ID/5×10^5 cells
same,ratio of tumor to muscle,[4],> 4
same,Cell uptake,[5]; 10 mM BCH,1.5±0.2 % ID/5×10^5 cells
same,Cell uptake,[5]; 10 mM MeAIB,0.5±0.2 % ID/5×10^5 cells
same,Cell uptake,[5]; Control (no inhibitor),1.4±0.1 % ID/5×10^5 cells
same,inhibition of uptake by BCH,"[6]; 10 mM BCH, relative to control, most cell lines",no BCH inhibition was observed in most cases
same,inhibition of uptake by MeAIB,"[6]; 10 mM MeAIB, relative to control, most cell lines",50-91%
same,uptake in tumor cells,"[6]; 30 minutes incubation, without inhibitors, range over the cell lines",1-7 %ID/5×10^5 cells
same,amino acid transport system mediating uptake / selectivity,[6]; AAT cell inhibition assays with MeAIB and BCH,high selectivity for system A AAT; also recorded: the most selective for system A transport
same,uptake in pancreas,[7]; 15 min post injection,74±11 %ID/g
same,uptake in tumor,[7]; 30 min post injection,5.9±1.1 %ID/g
same,uptake in kidney,[7]; 60 min post injection,6.8±1.3 %ID/g
same,uptake in liver,[7]; 60 min post injection,6.8±1.3 %ID/g
same,uptake in tumor,[7]; 60 min post injection,5.8±0.8 %ID/g
same,uptake in spleen,[7]; 120 min post injection,6.1±0.5 %ID/g
same,uptake in tumor,[8]; 15 min post injection,5.3±1.9 %ID/g
same,uptake in liver,[8]; 30 min post injection,7.5±1.5 %ID/g
same,uptake in spleen,[8]; 30 min post injection,9.8±1.3 %ID/g
same,uptake in tumor,[8]; 30 min post injection,6.3±1.3 %ID/g
same,uptake in liver,[8]; 60 min post injection,5.2±0.3 %ID/g
same,Cell uptake,[9]; 10 mM BCH,3.5±0.2 % ID/5×10^5 cells
same,Cell uptake,[9]; 10 mM MeAIB,0.6±0.1 % ID/5×10^5 cells
same,Cell uptake,[9]; Control (no inhibitor),2.7±0.3 % ID/5×10^5 cells
same,uptake in tumor,[10]; 60 min post injection,7.5±1.8 %ID/g
same,uptake in spleen,[10]; 120 min post injection,6.8±0.6 %ID/g
same,uptake in pancreas,[11]; 15 min post injection,59±3.3 %ID/g
same,uptake in kidney,[11]; 60 min post injection,5.9±0.8 %ID/g
same,uptake in spleen,[11]; 120 min post injection,6.6±0.8 %ID/g
same,uptake in liver,[12]; 15 min post injection,7.8±1.2 %ID/g
same,uptake in tumor,[12]; 15 min post injection,5.2±1.2 %ID/g
same,uptake in pancreas,[12]; 30 min post injection,53±17 %ID/g
same,uptake in spleen,[12]; 120 min post injection,7.4±1.6 %ID/g
"NC1(C(=O)O)CC([18F])C1 (stereo not shown) [[^18F]FACBC, [18F]1-amino-3-fluorocyclobutane-1-carboxylic acid, reference compound]",brain uptake,[13],0.26±0.03 %ID/g
"N[C@@H](Cc1ccc(OCC[18F])cc1)C(=O)O [[^18F]FET, O-(2-[^18F]fluoroethyl)-L-tyrosine]",fold higher brain uptake than [18F]1,[14]; [18F]FET in nude mice vs [18F]1 in SCID mice,2.5-3.5 fold
same,fold higher brain uptake than [18F]2,[14]; [18F]FET in nude mice vs [18F]2 in SCID mice,7-14 fold
